Reference: patent publication US11123316B2, “Imaging composition and uses thereof” (The University of Melbourne, priority 2014, dated 2021)

Assay: Competition Study 2: ZrCl4(THF)2 added to mixture of DFOPhSO3H and DFOSqTaur, ESI-MS
Format: binding
Details: 50° C., 7 hours, FIG. 46
Method: A 3 mM stock solution of each ligand, DFOPhSO3H and DFOSqTaur, was prepared in a mixture of H2O and MeOH (concentrations were confirmed prior to dilution by UV-Vis Fe^3+ titration in H2O, 430 nm). A mixture of both solutions (25 uL each) was mixed thoroughly and heated to 50° C. A stock solution of ZrCl4(THF)2 in H2O/MeOH (3 mM) was also prepared, and 20 uL of this was added to the ligand mixture. The mixture was incubated at 50° C. for 7 hours.

Question: For `CC(=O)N(O)CCCCCNC(=O)CCC(=O)N(O)CCCCCNC(=O)CCC(=O)N(O)CCCCCNc1c(NCCS(=O)(=O)O)c(=O)c1=O` [DFOSqTaur], which “Zr complex found in competition with DFOPhSO3H” value is on record?
Answer: presence of the ZrDFOSqTaur complex
